The NIST ThermoML archive (doi:10.1021/je700260f)
Several values for one entry are separate records, joined by “and”; a condition that tells them apart may be missing. Identical values can stand only once.

Conditions: Liquid, Vibrating tube method

FC(C(F)(F)F)C(F)(F)F [1,1,1,2,3,3,3-heptafluoropropane]
Conditions | mass density
283.15 K, 34529 kPa | 1579 kg/m3
283.15 K, 34530 kPa | 1579 kg/m3
283.15 K, 34532 kPa | 1579.1 kg/m3
283.15 K, 34533 kPa | 1579 kg/m3
283.15 K, 34534 kPa | 1579.1 kg/m3
283.15 K, 34535 kPa | 1579.2 kg/m3
283.15 K, 34536 kPa | 1579 kg/m3
283.15 K, 34538 kPa | 1579 kg/m3 and 1579.1 kg/m3
283.15 K, 34540 kPa | 1579.1 kg/m3
283.15 K, 34541 kPa | 1579.1 kg/m3
283.16 K, 9519 kPa | 1496 kg/m3
283.16 K, 9552 kPa | 1496.3 kg/m3
283.16 K, 9579 kPa | 1496.3 kg/m3
283.16 K, 9612 kPa | 1496.4 kg/m3
283.16 K, 21379 kPa | 1540.8 kg/m3
293.14 K, 783 kPa | 1411.5 kg/m3
293.14 K, 832 kPa | 1411.9 kg/m3
293.14 K, 869 kPa | 1412.2 kg/m3
293.14 K, 911 kPa | 1412.4 kg/m3
293.14 K, 943 kPa | 1412.7 kg/m3
293.14 K, 980 kPa | 1412.9 kg/m3
293.14 K, 1007 kPa | 1413.2 kg/m3
293.14 K, 1048 kPa | 1413.5 kg/m3
293.14 K, 1080 kPa | 1413.6 kg/m3
293.14 K, 1113 kPa | 1414 kg/m3
293.14 K, 1145 kPa | 1414.1 kg/m3
293.14 K, 1191 kPa | 1414.5 kg/m3
293.14 K, 1219 kPa | 1414.6 kg/m3
293.14 K, 1252 kPa | 1414.9 kg/m3
293.14 K, 1285 kPa | 1415 kg/m3
293.14 K, 1319 kPa | 1415.2 kg/m3
293.14 K, 1347 kPa | 1415.6 kg/m3
293.14 K, 1380 kPa | 1415.7 kg/m3
293.14 K, 1417 kPa | 1415.9 kg/m3
293.14 K, 1446 kPa | 1416.2 kg/m3
293.14 K, 1484 kPa | 1416.4 kg/m3
293.14 K, 1514 kPa | 1416.7 kg/m3
293.14 K, 1543 kPa | 1417 kg/m3
293.14 K, 1583 kPa | 1417.1 kg/m3
293.14 K, 1612 kPa | 1417.3 kg/m3
293.14 K, 1754 kPa | 1418.3 kg/m3
293.14 K, 1789 kPa | 1418.7 kg/m3
293.14 K, 1824 kPa | 1418.8 kg/m3
293.14 K, 1901 kPa | 1419.3 kg/m3
293.14 K, 1941 kPa | 1419.6 kg/m3
293.14 K, 1972 kPa | 1419.8 kg/m3
293.14 K, 2001 kPa | 1420.1 kg/m3
293.14 K, 2030 kPa | 1420.1 kg/m3
293.14 K, 2059 kPa | 1420.5 kg/m3
293.14 K, 2084 kPa | 1420.5 kg/m3
293.14 K, 2104 kPa | 1420.7 kg/m3
293.14 K, 2140 kPa | 1421 kg/m3
293.14 K, 2164 kPa | 1421 kg/m3
293.14 K, 2197 kPa | 1421.3 kg/m3
293.14 K, 2221 kPa | 1421.4 kg/m3
293.14 K, 2258 kPa | 1421.7 kg/m3
293.14 K, 2291 kPa | 1421.9 kg/m3
293.14 K, 2324 kPa | 1422.2 kg/m3
293.14 K, 2349 kPa | 1422.4 kg/m3
293.14 K, 2377 kPa | 1422.7 kg/m3
293.14 K, 2402 kPa | 1422.6 kg/m3
293.14 K, 2682 kPa | 1424.5 kg/m3
293.14 K, 2707 kPa | 1424.7 kg/m3
293.14 K, 2740 kPa | 1424.9 kg/m3
293.14 K, 2766 kPa | 1425.1 kg/m3
293.14 K, 2804 kPa | 1425.4 kg/m3
293.14 K, 2829 kPa | 1425.5 kg/m3
293.14 K, 2858 kPa | 1425.8 kg/m3
293.14 K, 2883 kPa | 1425.8 kg/m3
293.14 K, 2921 kPa | 1426.1 kg/m3
293.14 K, 2959 kPa | 1426.4 kg/m3
293.14 K, 2988 kPa | 1426.7 kg/m3
293.14 K, 3018 kPa | 1426.7 kg/m3
293.14 K, 3056 kPa | 1426.9 kg/m3
293.14 K, 3082 kPa | 1427.2 kg/m3
293.14 K, 3112 kPa | 1427.3 kg/m3
293.14 K, 3147 kPa | 1427.5 kg/m3
293.14 K, 3177 kPa | 1427.8 kg/m3
293.14 K, 3211 kPa | 1427.9 kg/m3
293.14 K, 3246 kPa | 1428.2 kg/m3
293.14 K, 3290 kPa | 1428.4 kg/m3
293.14 K, 3321 kPa | 1428.7 kg/m3
293.14 K, 3360 kPa | 1428.9 kg/m3
293.14 K, 3395 kPa | 1429.1 kg/m3
293.14 K, 3426 kPa | 1429.3 kg/m3
293.14 K, 3461 kPa | 1429.4 kg/m3
293.14 K, 3502 kPa | 1429.8 kg/m3
293.14 K, 3537 kPa | 1430 kg/m3
293.14 K, 3573 kPa | 1430.1 kg/m3
293.14 K, 3604 kPa | 1430.4 kg/m3
293.14 K, 3631 kPa | 1430.7 kg/m3
293.14 K, 3668 kPa | 1430.7 kg/m3
293.14 K, 3690 kPa | 1431.1 kg/m3
293.14 K, 3722 kPa | 1431 kg/m3
293.14 K, 3750 kPa | 1431.3 kg/m3
293.14 K, 3815 kPa | 1431.8 kg/m3
293.14 K, 3876 kPa | 1432.1 kg/m3
293.14 K, 4878 kPa | 1438.3 kg/m3
293.14 K, 4910 kPa | 1438.4 kg/m3
293.14 K, 4933 kPa | 1438.5 kg/m3
293.14 K, 4965 kPa | 1438.7 kg/m3
293.14 K, 4997 kPa | 1438.9 kg/m3
293.14 K, 5029 kPa | 1439.2 kg/m3
293.14 K, 7613 kPa | 1453.4 kg/m3
293.14 K, 7636 kPa | 1453.6 kg/m3
293.14 K, 7664 kPa | 1453.8 kg/m3
293.14 K, 7697 kPa | 1454 kg/m3
293.14 K, 7725 kPa | 1454 kg/m3
293.14 K, 7758 kPa | 1454.2 kg/m3
293.14 K, 7801 kPa | 1454.4 kg/m3
293.14 K, 7862 kPa | 1454.8 kg/m3
293.14 K, 7886 kPa | 1454.8 kg/m3
293.14 K, 7919 kPa | 1455.1 kg/m3
293.14 K, 7952 kPa | 1455.3 kg/m3
293.14 K, 7995 kPa | 1455.4 kg/m3
293.14 K, 8024 kPa | 1455.6 kg/m3
293.14 K, 8053 kPa | 1455.7 kg/m3
293.14 K, 8087 kPa | 1455.9 kg/m3
293.14 K, 8111 kPa | 1456.1 kg/m3
293.14 K, 8140 kPa | 1456.2 kg/m3
293.14 K, 8183 kPa | 1456.4 kg/m3
293.14 K, 8211 kPa | 1456.6 kg/m3
293.14 K, 8240 kPa | 1456.7 kg/m3
293.14 K, 8283 kPa | 1456.9 kg/m3
293.14 K, 8312 kPa | 1457.1 kg/m3
293.14 K, 8350 kPa | 1457.4 kg/m3
293.14 K, 8380 kPa | 1457.4 kg/m3
293.14 K, 8410 kPa | 1457.7 kg/m3
293.14 K, 8447 kPa | 1457.8 kg/m3
293.14 K, 8480 kPa | 1457.9 kg/m3
293.14 K, 8509 kPa | 1458.1 kg/m3
293.14 K, 8542 kPa | 1458.3 kg/m3
293.14 K, 9213 kPa | 1461.8 kg/m3
293.14 K, 9292 kPa | 1462.1 kg/m3
293.14 K, 9327 kPa | 1462.4 kg/m3
293.14 K, 9357 kPa | 1462.4 kg/m3
293.14 K, 9402 kPa | 1462.7 kg/m3
293.14 K, 9437 kPa | 1462.7 kg/m3
293.14 K, 9481 kPa | 1463 kg/m3
293.14 K, 9511 kPa | 1463.2 kg/m3
293.14 K, 9547 kPa | 1463.4 kg/m3
293.14 K, 9584 kPa | 1463.5 kg/m3
293.14 K, 9615 kPa | 1463.7 kg/m3
293.14 K, 9655 kPa | 1464 kg/m3
293.14 K, 9695 kPa | 1464.1 kg/m3
293.14 K, 9731 kPa | 1464.2 kg/m3
293.14 K, 9771 kPa | 1464.6 kg/m3
293.14 K, 9807 kPa | 1464.6 kg/m3
293.14 K, 9843 kPa | 1464.8 kg/m3
293.14 K, 9879 kPa | 1464.9 kg/m3
293.14 K, 9915 kPa | 1465.1 kg/m3
293.14 K, 9946 kPa | 1465.3 kg/m3
293.14 K, 10356 kPa | 1467.4 kg/m3
293.14 K, 10403 kPa | 1467.6 kg/m3
293.14 K, 10428 kPa | 1467.8 kg/m3
293.14 K, 10474 kPa | 1467.9 kg/m3
293.14 K, 10520 kPa | 1468.1 kg/m3
293.14 K, 11001 kPa | 1470.5 kg/m3
293.14 K, 12780 kPa | 1478.5 kg/m3
293.14 K, 12814 kPa | 1478.8 kg/m3
293.14 K, 12854 kPa | 1478.9 kg/m3
293.14 K, 12939 kPa | 1479.2 kg/m3
293.14 K, 13996 kPa | 1483.9 kg/m3
293.14 K, 14034 kPa | 1484.1 kg/m3
293.14 K, 16570 kPa | 1494.7 kg/m3
293.14 K, 16613 kPa | 1494.8 kg/m3
293.14 K, 16642 kPa | 1494.8 kg/m3
293.14 K, 16676 kPa | 1495.1 kg/m3
293.14 K, 16710 kPa | 1495.1 kg/m3
293.14 K, 16801 kPa | 1495.6 kg/m3
293.14 K, 17585 kPa | 1498.6 kg/m3
293.14 K, 17619 kPa | 1498.8 kg/m3
293.14 K, 19526 kPa | 1506.1 kg/m3
293.14 K, 19555 kPa | 1506.3 kg/m3
293.14 K, 19593 kPa | 1506.2 kg/m3
293.14 K, 20937 kPa | 1511.3 kg/m3
293.14 K, 21424 kPa | 1513.1 kg/m3
293.14 K, 21528 kPa | 1513.4 kg/m3
293.14 K, 21563 kPa | 1513.5 kg/m3
293.14 K, 21593 kPa | 1513.7 kg/m3
293.14 K, 21629 kPa | 1513.8 kg/m3
293.14 K, 21779 kPa | 1514.5 kg/m3
293.14 K, 21810 kPa | 1514.5 kg/m3
293.14 K, 21855 kPa | 1514.7 kg/m3
293.14 K, 21896 kPa | 1514.8 kg/m3
293.14 K, 23767 kPa | 1521.3 kg/m3
293.14 K, 32750 kPa | 1549.5 kg/m3
293.14 K, 32783 kPa | 1549.7 kg/m3
293.14 K, 32817 kPa | 1549.7 kg/m3
293.14 K, 32855 kPa | 1549.9 kg/m3
293.14 K, 32884 kPa | 1549.9 kg/m3
293.14 K, 32926 kPa | 1550.1 kg/m3
293.14 K, 32970 kPa | 1550.2 kg/m3
293.14 K, 32998 kPa | 1550.3 kg/m3
293.14 K, 33036 kPa | 1550.4 kg/m3
293.14 K, 33075 kPa | 1550.3 kg/m3
293.14 K, 33109 kPa | 1550.6 kg/m3
293.14 K, 33143 kPa | 1550.6 kg/m3
293.14 K, 33182 kPa | 1550.8 kg/m3
293.14 K, 33215 kPa | 1550.9 kg/m3
293.14 K, 33255 kPa | 1550.8 kg/m3
293.14 K, 33293 kPa | 1551.1 kg/m3
293.14 K, 33323 kPa | 1551.1 kg/m3
293.14 K, 33367 kPa | 1551.3 kg/m3
293.14 K, 33406 kPa | 1551.4 kg/m3
